The results in this text go back to ChEMBL document CHEMBL1921768, “Identification of novel CYP2A6 inhibitors by virtual screening” (Bioorg Med Chem, 2011).

By IC50 is commonly meant the concentration at which inhibition is half-maximal. Broadly, the kinact is the rate constant of inactivation at saturating inhibitor.

Common to all, as to format: ADME, Microsome
The target of data set [1] is T1, Cytochrome P450 2A6 (Homo sapiens, UniProt P11509).
T1 sequence (P11509 whole entry): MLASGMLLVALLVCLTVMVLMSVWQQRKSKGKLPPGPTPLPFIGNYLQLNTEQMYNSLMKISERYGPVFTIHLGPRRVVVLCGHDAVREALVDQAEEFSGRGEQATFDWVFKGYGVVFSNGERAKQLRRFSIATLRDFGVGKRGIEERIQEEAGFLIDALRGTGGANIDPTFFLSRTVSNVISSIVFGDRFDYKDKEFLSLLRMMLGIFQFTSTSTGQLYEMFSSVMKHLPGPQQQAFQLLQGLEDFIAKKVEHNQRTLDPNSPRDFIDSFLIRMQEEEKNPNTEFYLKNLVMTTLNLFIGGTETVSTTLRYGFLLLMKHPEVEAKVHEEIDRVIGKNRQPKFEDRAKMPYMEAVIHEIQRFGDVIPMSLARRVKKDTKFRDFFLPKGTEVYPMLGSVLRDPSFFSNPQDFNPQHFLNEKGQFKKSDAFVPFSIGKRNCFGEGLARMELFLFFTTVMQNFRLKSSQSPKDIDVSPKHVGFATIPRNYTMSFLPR
The experiment in a line: Inhibition of CYP2A6 in human liver microsomes assessed as inhibition of coumarin 7-hydroxylation after 10 mins by plate reader. In general terms: Microsomes from liver hold many membrane-bound enzymes, among them those of drug oxidation.

Data set [2] has as its target T1, Cytochrome P450 2A6. Kind of data set: Inhibition of CYP2A6 in human liver microsomes assessed as inhibition of coumarin 7-hydroxylation after 30 mins preincubation by plate reader.
For data set [3], the target named is T1, Cytochrome P450 2A6. Kind of data set: Irreversible inhibition of CYP2A6 in human liver microsomes assessed as coumarin 7-hydroxylation activity in presence of NADPH. The note with it: TDE = time-dependent effect.
The target of data set [4] is T1, Cytochrome P450 2A6. The experiment in a line: Irreversible inhibition of CYP2A6 in human liver microsomes assessed as coumarin 7-hydroxylation activity after 1 to 5 mins in presence of NADPH.
Data set [5] has as its target T2, CYP2A6 (Homo sapiens, UniProt P11509).
T2 sequence (P11509 whole entry): T1 sequence (P11509 whole entry)
Kind of data set: (§1) Irreversible inhibition of CYP2A6 in human liver microsomes assessed as coumarin 7-hydroxylation activity by double reciprocal plot analysis in presence of NADPH. Particulars: human, liver microsomes, probe coumarin (7-hydroxylation).

Data set [6] has as its target T1, Cytochrome P450 2A6. The data set is described as §1.

`NCc1cc2ccccc2s1`: the half-maximal inhibitory concentration (IC50) in data set [1] came to 100 nM.
Still for that read-out and setting: in the case of `N#CCSc1nnc(N)s1` it was more than 100000 nM.
On the same count and under the same terms, the result for `O=Cc1ccc(-c2cccs2)cc1` reads more than 100000 nM.
Turning to `NCc1csc2ccccc12`, the half-inhibitory concentration (IC50) in data set [2] stood at 200 nM; in data set [1] it was 1500 nM.
On the same counts, the results for `NCc1ccc2sccc2c1` are 600 nM and 1700 nM.
As for `Brc1cccc2[nH]ccc12`, the IC50 in data set [1] is more than 100000 nM.
In the case of `N#Cc1ccc(C=O)cc1`, the IC50 in data set [1] is more than 100000 nM.
With `N#Cc1c(Cl)cccc1OCC(F)(F)F`, the IC50 in data set [1] is more than 100000 nM.
Take `O=C(O)c1cc2ccccc2s1`: the IC50 in data set [1] was more than 100000 nM.
The same measure, in the same setting: the result for `Brc1ccc2[nH]ccc2c1` reads 6400 nM.
Turning to `O=Cc1csc2ccccc12`, the “inhibition (INH)” value is given as “tde” in data set [3] and “Dose-dependent effect” in data set [4]. The IC50 in data set [2] stood at 50 nM; in data set [1], 1600 nM. For the same compound, the kinact in data set [5] was 0.006 s⁻¹. Further, the Ki in data set [6] turned out to be 29000 nM.
